Legend:
human P-gp-His10 = human P-gp-His10 (Homo sapiens, UniProt P08183); assay: Stimulation of ATPase activity of isolated human P-gp-His10; conditions: read-out: KM (concentration of compound required to achieve 50% maximal stimulation); isolated human P-gp-His10 in sheep brain phosphatidylethanolamine
MDCKII-MDR1 cells = assay: Transport and cell association across MDCKII-MDR1 monolayers; format: in vitro ADME; conditions: for PAB (+ inh): absorptive direction; for PAB (+ inh) / PBA (+ inh): with 5 × 10^−6 M LSN 335984, 5 × 10^−6 M dye, BSA; for PBA / PBA (+ inh): secretory direction; for PBA: no inhibitor, 5 × 10^−6 M dye, 4.3 mg mL^−1 BSA; for Ratio (+/− inh) for % cell associated dye: inhibited / uninhibited pump

Chain of human P-gp-His10 (P08183 whole entry): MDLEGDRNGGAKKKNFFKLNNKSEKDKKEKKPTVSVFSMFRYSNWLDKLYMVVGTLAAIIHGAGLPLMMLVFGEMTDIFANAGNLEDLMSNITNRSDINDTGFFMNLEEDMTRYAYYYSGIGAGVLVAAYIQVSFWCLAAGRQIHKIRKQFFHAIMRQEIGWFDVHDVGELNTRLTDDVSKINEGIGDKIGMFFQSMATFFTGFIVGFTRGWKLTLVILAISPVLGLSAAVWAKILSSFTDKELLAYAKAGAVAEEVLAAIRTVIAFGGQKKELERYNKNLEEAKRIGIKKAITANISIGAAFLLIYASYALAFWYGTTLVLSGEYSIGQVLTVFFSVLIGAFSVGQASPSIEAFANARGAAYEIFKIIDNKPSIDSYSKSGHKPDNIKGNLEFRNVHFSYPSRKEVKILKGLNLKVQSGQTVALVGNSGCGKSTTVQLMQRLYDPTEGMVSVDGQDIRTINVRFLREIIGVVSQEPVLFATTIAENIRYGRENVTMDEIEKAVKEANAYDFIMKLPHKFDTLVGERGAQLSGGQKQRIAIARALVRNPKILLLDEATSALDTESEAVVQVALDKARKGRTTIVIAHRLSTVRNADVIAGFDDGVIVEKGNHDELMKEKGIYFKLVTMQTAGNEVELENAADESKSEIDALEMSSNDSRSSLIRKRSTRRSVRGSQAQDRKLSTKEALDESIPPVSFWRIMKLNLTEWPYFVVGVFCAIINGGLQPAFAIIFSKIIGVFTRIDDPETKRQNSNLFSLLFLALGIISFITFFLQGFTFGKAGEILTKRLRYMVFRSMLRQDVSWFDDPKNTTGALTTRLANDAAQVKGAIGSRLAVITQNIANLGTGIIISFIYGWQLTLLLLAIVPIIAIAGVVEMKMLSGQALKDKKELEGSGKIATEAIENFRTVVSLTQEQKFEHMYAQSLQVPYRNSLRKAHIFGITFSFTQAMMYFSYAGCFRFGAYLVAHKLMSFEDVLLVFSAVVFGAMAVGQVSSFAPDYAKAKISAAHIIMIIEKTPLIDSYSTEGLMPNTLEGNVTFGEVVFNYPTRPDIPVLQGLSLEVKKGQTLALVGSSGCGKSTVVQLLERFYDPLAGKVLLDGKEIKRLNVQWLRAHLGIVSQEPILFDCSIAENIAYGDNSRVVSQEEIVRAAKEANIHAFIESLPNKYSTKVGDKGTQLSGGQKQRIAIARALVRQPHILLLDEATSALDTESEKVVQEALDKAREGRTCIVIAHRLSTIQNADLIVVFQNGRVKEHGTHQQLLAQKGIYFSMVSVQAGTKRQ

CCN(CC)C(=O)c1ccc(-c2c3ccc(N(C)C)cc3[s+]c3cc(N(C)C)ccc23)s1 [Compound 1, 3,6-bis(dimethylamino)-9-(5-(diethylcarbamoyl)thiophen-2-yl)thioxan-thylium hexafluorophosphate]
Km (human P-gp-His10): 5.7 ± 1 µM

CCN(CC)C(=S)c1ccc(-c2c3ccc(N(C)C)cc3[s+]c3cc(N(C)C)ccc23)s1.F[P-](F)(F)(F)(F)F [Compound 2, 3,6-bis(dimethylamino)-9-(5-(diethylcarbamothioyl)thiophen-2-yl)thioxanthylium hexafluorophosphate]
PAB (+ inh) (MDCKII-MDR1 cells): ≤ 1 ≤ 1 10^−9 m s^−1
PBA (MDCKII-MDR1 cells): 210 ± 17 10^−9 m s^−1
Km (human P-gp-His10): 5.8 ± 0.6 µM

CCN(CC)C(=O)c1ccc(-c2c3ccc(N(C)C)cc3[s+]c3c4c5c(cc23)CCCN5CCC4)s1.F[P-](F)(F)(F)(F)F [Compound 5, 12-(dimethylamino)-2,3,6,7-tetrahydro-9-(5-(diethylcarbamoyl)thiophen-2-yl)-1H,5H-thioxantheno[2,3,4-ij]quinolizin-14-ium hexafluorophosphate]
PAB (+ inh) (MDCKII-MDR1 cells): ≤ 1 ≤ 1 10^−9 m s^−1
Ratio (+/− inh) for % cell associated dye (MDCKII-MDR1 cells): 3.3-6.1
PBA (MDCKII-MDR1 cells): 210 ± 22 10^−9 m s^−1
PBA (+ inh) (MDCKII-MDR1 cells): 17.0 ± 0.4 10^−9 m s^−1
Km (human P-gp-His10): 3.6 ± 0.4 µM

CCN(CC)C(=S)c1ccc(-c2c3ccc(N(C)C)cc3[s+]c3c4c5c(cc23)CCCN5CCC4)s1.F[P-](F)(F)(F)(F)F [Compound 6, 12-(Dimethylamino)-2,3,6,7-tetrahydro-9-(5-(diethylcarbamothioyl)-thiophen-2-yl)-1H,5H-thioxantheno[2,3,4-ij]quinolizin-14-ium hexafluorophosphate]
PAB (+ inh) (MDCKII-MDR1 cells): ≤ 1 ≤ 1 10^−9 m s^−1
Ratio (+/− inh) for % cell associated dye (MDCKII-MDR1 cells): 1.2-2.1
PBA (MDCKII-MDR1 cells): 65.0 ± 1.5 10^−9 m s^−1
PBA (+ inh) (MDCKII-MDR1 cells): 2.7 ± 0.1 10^−9 m s^−1
Km (human P-gp-His10): 2.3 ± 0.4 µM

CN(C)c1ccc2c(-c3ccc(C(=O)N4CCCCC4)s3)c3cc4c5c(c3[s+]c2c1)CCCN5CCC4.F[P-](F)(F)(F)(F)F [Compound 7, 12-(dimethylamino)-2,3,6,7-tetrahydro-9-(N-piperidyl-2-thienyl-5-carboxamido)-1H,5H-thioxantheno[2,3,4-ij]quinolizin-14-ium hexafluorophosphate]
PAB (+ inh) (MDCKII-MDR1 cells): ≤ 1 ≤ 1 10^−9 m s^−1
Ratio (+/− inh) for % cell associated dye (MDCKII-MDR1 cells): 3.3-6.1
PBA (MDCKII-MDR1 cells): 220 ± 29 10^−9 m s^−1
PBA (+ inh) (MDCKII-MDR1 cells): 8.1 ± 0.1 10^−9 m s^−1
Km (human P-gp-His10): 1.9 ± 0.4 µM

CCN(CC)C(=O)c1ccc(-[c+]2c3ccc(N(C)C)cc3sc3cc4c(cc32)C(C)(C)CCN4C)s1.F[P-](F)(F)(F)(F)F [Compound 9, 6-(5-(diethylcarbamoyl)thiophen-2-yl)-9-(dimethylamino)-1,4,4-trimethyl-2,3,4,6-tetrahydro-1H-thiochromeno[3,2-g]quinolin-6-ylium hexafluorophosphate]
PAB (+ inh) (MDCKII-MDR1 cells): ≤ 1 ≤ 1 10^−9 m s^−1
Ratio (+/− inh) for % cell associated dye (MDCKII-MDR1 cells): 3.3-6.1
PBA (MDCKII-MDR1 cells): 370 ± 17 10^−9 m s^−1
PBA (+ inh) (MDCKII-MDR1 cells): 27.0 ± 0.3 10^−9 m s^−1
Km (human P-gp-His10): 2.2 ± 1 µM

CCN(CC)C(=S)c1ccc(-[c+]2c3ccc(N(C)C)cc3sc3cc4c(cc32)C(C)(C)CCN4C)s1.F[P-](F)(F)(F)(F)F [Compound 10, 6-(5-(diethylcarbamothioyl)thiophen-2-yl)-9-(dimethylamino)-1,4,4-trimethyl-2,3,4,6-tetrahydro-1H-thiochromeno[3,2-g]quinolin-6-ylium hexafluorophosphate]
PAB (+ inh) (MDCKII-MDR1 cells): ≤ 1 ≤ 1 10^−9 m s^−1
Ratio (+/− inh) for % cell associated dye (MDCKII-MDR1 cells): 1.2-2.1
PBA (+ inh) (MDCKII-MDR1 cells): 1.0 ± 0.1 10^−9 m s^−1
Km (human P-gp-His10): 3.1 ± 0.7 µM
